From patent US20240374739A1, “BILE ACID CONJUGATE” (Curtin University, priority 2021, published 2024)

Tests used:
Pancreatic NIT-1 β-cells = assay: MTT viability assay on pancreatic NIT-1 β-cells; type: cell-based; conditions: glucose 25.5 mM (hyperglycemic); 10 μM probucol, 10 μM HA-1
Experimental: Cells were grown and processed in a Dulbecco's Modified Eagle's media with 11.5% foetal bovine serum, as per the protocols described below.
Specifically, the cells were cultured on T-75 cm^2 tissue culture flasks (Thermo Fisher Scientific®, Australia) and fed with Dulbecco's modified Eagle's medium (DMEM) (Gibco, Life Technologies, USA) supplemented with either 5.5 mM glucose or 25.5 mM glucose (Sigma Chemical Co, USA), 11.5% fetal bovine serum (Thermo Fisher Scientific, Australia), and 5% penicillin-streptomycin (Thermo Fisher Scientific, Australia). The β-cells were incubated in an environment of 5% CO2 in humidified air at 37° C. using a Nuaire NU-8500 Water Jacket CO2 Incubator (Nuaire, USA) for 72 hours.
The MTT assay for cellular mitochondrial activity is a common and an important analytical technique for determining the degree of cell viability and biological activity. Briefly, MTT was prepared as 5 mg/ml stock solution (Sigma Chemical CO, USA) in phosphate buffer, at pH 7.4 (Thermo Fisher Scientific, Australia). The undissolved residues were removed by sterile filtration. The stock solution was stored in a sterile environment at 4° C. in the dark and used within 7 days of preparation. […] Formazan was dissolved in 100 μl of dimethyl sulfoxide (DMSO) (Sigma Chemical CO, USA) via reverse pipetting and the resultant purple solution was analysed photometrically at 550 nm.

diabetic db/db mice [1] = assay: BBB integrity (IgG extravasation) in diabetic db/db mice; type: in vivo; conditions: for IgG extravasation in CTX: 28-week old
Excerpt: (§1) In this study, 4-5 week old diabetic db/db mice were put onto a diet containing probucol 0.1% (w/w) or HA-1 0.2% (w/w) for either 10 or 24 weeks, till the age of 14 or 28 weeks, respectively. Passive avoidance test was used to assess short-term memory. Subsequently, the mice were sacrificed to obtain plasma and brain tissue samples for further analyses.

diabetic db/db mice [2] = assay: Diabetic phenotype: plasma glucose, triglycerides, insulin, cholesterol in diabetic db/db mice; type: in vivo; conditions: for plasma cholesterol: 14 and 28 weeks of age (FIGS. 23G and 23H)
Excerpt: as §1
Elevation in plasma glucose, triglycerides and insulin are typical signs of diabetes, with cholesterol to lesser extent. Levels of plasma glucose, plasma triglyceride, plasma insulin, and plasma cholesterol levels were measured at 14 weeks of age and at 28 weeks of age (FIG. 23) (*p<0.05, **p<0.01, ***p<0.001, ****p<0.0001, n=12).

[3] = system: Amniotic membrane mesenchymal stem cells (AM-MSCs); assay: Cytotoxicity study by MTT cell viability assay; type: cell-based, human; conditions: 10-30 μM, 24 hours
Experimental: (§2) Amniotic membrane mesenchymal stem cells (AM-MSCs) were incubated with different concentrations (10, 15, 20, 25 and 30 uM, and DMSO control) of (A) probucol, (B) SPQ, (C) HA-1, and (D) DMSO for 24 hours. D1=DMSO control for 10 μM, D2=DMSO control for 20 μM (p<0.05; *p<0.05, **p<0.001, ***p<0.0001, ns=non-significant, n=3).
as §2, with “HA-1 and,” for “HA-1, and”

diabetic db/db mice [4] = assay: Novel Object Recognition Test in diabetic db/db mice (Experimental Example 5); type: in vivo; conditions: at 14 weeks of age
Experimental: Cognitive function in diabetic db/db mice was tested with Passive Avoidance and Novel Object Recognition tests. For both tests, the higher the value, the better the memory.
The mice were administered with either probucol, HA-1 or apoCIII antisense from 5 weeks of age, and cognitive performance was tested at 14 weeks of age.

diabetic db/db mice [5] = assay: Small intestinal apoB and Aβ in diabetic db/db mice; type: in vivo
Excerpt: as §1

diabetic db/db mice [6] = assay: Passive avoidance test (short-term memory) in diabetic db/db mice (Experimental Example 7); type: in vivo; conditions: 14 and 28 weeks of age, compared to the control mice
Excerpt: as §1

[7] = system: Neurodegenerated cells (Parkinson's disease model); assay: Adenosine triphosphate (ATP) assay, Parkinson's disease model; type: cell-based, human; conditions: PD model; probucol 20 μM, SPQ 10 μM, HA-1 10 μM, L-Dopa 50 μM, 24 hours
Experimental: Perinatal tissue derived human stem cell model for Parkinson's disease (PD) was prepared using proprietary protocols to test the effect of new drug entities. Drug treatment was for 24 hours in all the assays.
Impaired energy metabolism and reduced ATP levels are common features of PD. Using the stem cell derived PD model, we measured ATP levels in drug treated (probucol, SPQ and HA-1 and L-Dopa) cells and compared with neurodegenerated (ND) cells.
Neurodegenerated cells were incubated with probucol (20 μM), SPQ (10 μM), HA-1 (10 μM) and L-Dopa (50 μM) for 24 hours (p<0.05; *p<0.05, **p<0.001, ***p<0.0001, ns=non-significant, n=3).

OC-1 cells = assay: Seahorse bioenergetics experiment (oxygen consumption rate) after cisplatin; type: cell-based
Experimental: Mitochondrial function was analysed by measuring oxygen consumption rate (OCR) using real-time Seahorse Flux Analyser XF 96 (Seahorse Bioscience, USA) with our well-established method (Kovacevic, Bozica, et al. “Novel hydrogel comprising non-ionic copolymer with various concentrations of pharmacologically active bile acids for cellular injectable gel.” Colloids and Surfaces B: Biointerfaces (2022): 113014). Briefly, the first injection was with media without glucose, with subsequent ATP synthase inhibitor oligomycin and FCCP (carbonyl cyanide-p-trifluoromethoxy phenylhydrazone) and the final injection was complex […] inhibitors Rotenone+antimycin A 77. The result was automatically generated and analysed by the wave software. The OC-1 cells were pre-treated with cisplatin at three different concentrations (20, 30 and 40 μM) for 24 or 48 hours to induce cytotoxicity prior to the seahorse bioenergetics assays.

[8] = 14 weeks of age, probucol 0.1% (w/w), HA-1 0.2% (w/w) in diet
[9] = Experimental Example 1 (FIG. 1)
[10] = Experimental Example 2 (FIG. 8)

Row | Structure (SMILES) | NIT-1 cell viability (Pancreatic NIT-1 β-cells) | IgG extravasation in HPF (diabetic db/db mice [1]; 14 weeks of age) | IgG extravasation in CTX (diabetic db/db mice [1]) | IgG extravasation in HPF (diabetic db/db mice [1]; 28 weeks) | plasma cholesterol (diabetic db/db mice [2]) | plasma insulin (diabetic db/db mice [2]; 14 weeks of age) | plasma triglycerides (diabetic db/db mice [2]; 14 weeks of age) | plasma / blood glucose (diabetic db/db mice [2]; [8]) | plasma / blood glucose (diabetic db/db mice [2]; 28 weeks of age) | plasma insulin (diabetic db/db mice [2]; 28 weeks of age) | plasma triglycerides (diabetic db/db mice [2]; 28 weeks of age) | cytotoxicity by MTT cell viability assay [3, 9] | cytotoxicity by MTT cell viability assay [3, 10] | Novel Object Recognition Test preference index (diabetic db/db mice [4]) | small intestinal Aβ (diabetic db/db mice [5]; 14 weeks of age) | small intestinal apoB (diabetic db/db mice [5]; 14 weeks of age) | small intestinal Aβ (diabetic db/db mice [5]; 28 weeks of age) | ATP level [7] | other results
1 | CC(C)(Sc1cc(C(C)(C)C)c(O)c(C(C)(C)C)c1)Sc1cc(C(C)(C)C)c(O)c(C(C)(C)C)c1 [probucol, 2,6-ditert-butyl-4-[2-(3,5-ditert-butyl-4-hydroxyphenyl)sulfanylpropan-2-ylsulfanyl]phenol] | partially offset hyperglycaemia-induced pancreatic beta cell death | significantly attenuated | no beneficial effects on CTX IgG extravasation | did not show BBB protection | no beneficial effects on plasma cholesterol | significantly reduced | significantly attenuated plasma triglycerides | no significant effects | significantly reduced blood glucose | lost the ameliorative effects on insulin | significantly reduced plasma triglycerides | not toxic to the cells | not toxic to the cells | no significant effects | significantly attenuated | no significant reduction | significantly attenuated | – | –
2 | CC(=O)O[C@@H]1CC[C@@]2(C)[C@H](CC[C@@H]3[C@@H]2CC[C@]2(C)[C@@H]([C@H](C)CCC(=O)Oc4c(C(C)(C)C)cc(SC(C)(C)Sc5cc(C(C)(C)C)c(O)c(C(C)(C)C)c5)cc4C(C)(C)C)CC[C@@H]32)C1 [HA-1, 2,6-di-tert-butyl-4-((2-((3,5-di-tert-butyl-4-hydroxyphenyl)thio)propan-2-yl)thio)phenyl (4R)-4-[(3R,5R,8R,9S,10S,13R,14S,17R)-3-acetoxy-10,13-dimethyl-2,3,4,5,6,7,8,9,11,12,14,15,16,17-tetradecahydro-1H-cyclopenta[a]phenanthren-17-yl]pentanoate] | even more profound effect on ameliorating cell death | significantly attenuated | significantly reduced | significantly attenuated the BBB breakdown | no beneficial effects on plasma cholesterol | significantly reduced | significantly attenuated plasma triglycerides | modest decrease in blood glucose | significantly reduced blood glucose with HA-1 presenting greater effects | lost the ameliorative effects on insulin | significantly reduced plasma triglycerides | – | – | no significant effects | comparable or superior effects | significantly attenuated | comparable or superior effects | Enhanced increase in ATP levels | passive avoidance latency (short-term memory) (diabetic db/db mice [6]): significantly increased the latency; oxygen consumption rate (OCR) (OC-1 cells; OC-1 cells after 24 hours exposure to cisplatin (20, 30 and 40 μM)): significant and profound otoprotective effects; oxygen consumption rate (OCR) (OC-1 cells; OC-1 cells after 48 hours exposure to cisplatin (20, 30 and 40 μM)): significantly reverse the cytotoxic effects of cisplatin; small intestinal apoB (diabetic db/db mice [5]; 28 weeks of age): no longer seen
3 | CC1(C)SC2(C=C(C(C)(C)C)C(=O)C(C(C)(C)C)=C2)C2(C=C(C(C)(C)C)C(=O)C(C(C)(C)C)=C2)S1 [SPQ, 2,4,9,11-tetrakis(1,1-dimethylethyl)-14,14-dimethyl-13,15-dithiadispiro[5.0.5.3]pentadeca-1,4,8,11-tetraene-3,10-dione] | – | – | – | – | – | – | – | – | – | – | – | not toxic to the cells | not toxic to the cells | – | – | – | – | Enhanced increase in ATP levels | –
